Data from ChEMBL document CHEMBL1201862, “PubChem BioAssay data set” (2004).
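The compound was tested at five concentrations on cells cultured in 96-well plates, with a 48-hour exposure period. At the GI50, growth is halved.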 Calls of active or inactive are those of the source. Rule as the data show it: active = GI50 up to about 1.1 µM and inactive = higher.

What was measured:
Assay in all cases: NCI-60 cell line screen, 48 h
NCI-H23 = tested on: NCI-H23
OVCAR-8 = tested on: OVCAR-8
ACHN = tested on: ACHN
SNB-19 = tested on: SNB-19
786-0 = tested on: 786-0
SK-MEL-2 = tested on: SK-MEL-2
EKVX = tested on: EKVX
RPMI-8226 = tested on: RPMI-8226
SK-MEL-5 = tested on: SK-MEL-5
LOX IMVI = tested on: LOX IMVI
U-251 = tested on: U-251
HCT-116 = tested on: HCT-116
MDA-N = tested on: MDA-N
KM12 = tested on: KM12
TK-10 = tested on: TK-10
SK-OV-3 = tested on: SK-OV-3
SK-MEL-28 = tested on: SK-MEL-28
SF-539 = tested on: SF-539
HCT-15 = tested on: HCT-15
SR = tested on: SR

Compound	GI50 (NCI-H23)	GI50 (OVCAR-8)	GI50 (ACHN)	GI50 (SNB-19)	GI50 (786-0)	GI50 (SK-MEL-2)	GI50 (EKVX)	GI50 (RPMI-8226)	GI50 (SK-MEL-5)	GI50 (LOX IMVI)	GI50 (U-251)	GI50 (HCT-116)	GI50 (MDA-N)	GI50 (KM12)	GI50 (TK-10)	GI50 (SK-OV-3)	GI50 (SK-MEL-28)	GI50 (SF-539)	GI50 (HCT-15)	GI50 (SR)
CC1(C)C(N2CCOCC2)CS1(=O)=O (stereo not given)	> 10 µM (inactive)	> 10 µM (inactive)	> 10 µM (inactive)	> 10 µM (inactive)	> 10 µM (inactive)	> 10 µM (inactive)	> 10 µM (inactive)	> 10 µM (inactive)	> 10 µM (inactive)	> 10 µM (inactive)	> 10 µM (inactive)	> 10 µM (inactive)	> 10 µM (inactive)	> 10 µM (inactive)	> 10 µM (inactive)	> 10 µM (inactive)	> 10 µM (inactive)	> 10 µM (inactive)	> 10 µM	
COc1ccc(NC(=O)C(=O)C(C(=O)c2ccccc2)C2OC(=O)c3ccccc32)c([N+](=O)[O-])c1 (stereo not given)	> 100 µM (inactive)	> 100 µM (inactive)	> 100 µM (inactive)	> 100 µM (inactive)	> 100 µM (inactive)	> 100 µM (inactive)	> 100 µM (inactive)	> 100 µM (inactive)	> 100 µM (inactive)	> 100 µM (inactive)	> 100 µM (inactive)	> 100 µM (inactive)		> 100 µM (inactive)	> 100 µM (inactive)	> 100 µM (inactive)	> 100 µM (inactive)	> 100 µM (inactive)	> 100 µM	> 100 µM (inactive)
CNS(=O)(=O)NNS(=O)(=O)c1ccc(OC)cc1	> 100 µM (inactive)	> 100 µM (inactive)	> 100 µM (inactive)	> 100 µM (inactive)	> 100 µM (inactive)	> 100 µM (inactive)	> 100 µM (inactive)	> 100 µM (inactive)	> 100 µM (inactive)	> 100 µM (inactive)	> 100 µM (inactive)	> 100 µM (inactive)		> 100 µM (inactive)		> 100 µM (inactive)		> 100 µM (inactive)	> 100 µM	> 100 µM (inactive)
NC(=S)NS(=O)(=O)c1ccc(Cl)cc1	> 100 µM (inactive)	> 100 µM (inactive)	> 100 µM (inactive)	> 100 µM (inactive)	> 100 µM (inactive)	> 100 µM (inactive)	83.2 µM (inactive)	> 100 µM (inactive)	> 100 µM (inactive)	> 100 µM (inactive)	> 100 µM (inactive)	> 100 µM (inactive)	> 100 µM (inactive)	> 100 µM (inactive)	> 100 µM (inactive)	> 100 µM (inactive)	> 100 µM (inactive)	> 100 µM (inactive)	> 100 µM	
Oc1ccc2ccccc2c1/N=N/c1ccc(F)cc1	> 100 µM (inactive)	> 100 µM (inactive)	> 100 µM (inactive)	> 100 µM (inactive)	> 100 µM (inactive)	> 100 µM (inactive)		> 100 µM (inactive)	> 100 µM (inactive)	> 100 µM (inactive)	> 100 µM (inactive)	> 100 µM (inactive)		72.4 µM (inactive)	> 100 µM (inactive)	> 100 µM (inactive)	> 100 µM (inactive)	> 100 µM (inactive)	> 100 µM	> 100 µM (inactive)
CC(=O)NCC1OC2COC(c3ccccc3)OC2C2N=C(c3ccccc3)OC12 (stereo not given)	> 100 µM (inactive)	57 µM (inactive)	45.5 µM (inactive)	> 100 µM (inactive)	> 100 µM (inactive)	53.6 µM (inactive)	38 µM (inactive)	29.4 µM (inactive)	39.2 µM (inactive)	79.6 µM (inactive)	> 100 µM (inactive)	38.4 µM (inactive)	39.1 µM (inactive)	40.4 µM (inactive)	58.2 µM (inactive)	74.1 µM (inactive)	59.6 µM (inactive)	> 100 µM (inactive)	43.4 µM	
CC(=O)CC1CCC(=O)CCC(=O)OC(CC(C)=O)CCC(=O)CCC(=O)O1 (stereo not given)	> 100 µM (inactive)	> 100 µM (inactive)	> 100 µM (inactive)	> 100 µM (inactive)	> 100 µM (inactive)		> 100 µM (inactive)	> 100 µM (inactive)	> 100 µM (inactive)		> 100 µM (inactive)	> 100 µM (inactive)	> 100 µM (inactive)	> 100 µM (inactive)	> 100 µM (inactive)	> 100 µM (inactive)	> 100 µM (inactive)	> 100 µM (inactive)	> 100 µM	
CCOc1ccc(NC(=O)/C(CC(=O)c2c[n+]([O-])c3ccccc3[n+]2[O-])=N\OCCCc2ccccc2)cc1	> 100 µM (inactive)	> 100 µM (inactive)	> 100 µM (inactive)	> 100 µM (inactive)	> 100 µM (inactive)	> 100 µM (inactive)	> 100 µM (inactive)	> 100 µM (inactive)			> 100 µM (inactive)	> 100 µM (inactive)		> 100 µM (inactive)	> 100 µM (inactive)	> 100 µM (inactive)	> 100 µM (inactive)	> 100 µM (inactive)	> 100 µM	> 100 µM (inactive)
O=c1cccccc1NCCCCCCCCCNc1cccccc1=O	5.26 µM (inactive)	13.6 µM (inactive)	4.28 µM (inactive)	11.5 µM (inactive)	22.1 µM (inactive)	19 µM (inactive)	4.56 µM (inactive)	4.4 µM (inactive)		5.9 µM (inactive)	10.6 µM (inactive)	2.74 µM (inactive)		16.1 µM (inactive)		33.1 µM (inactive)		6.68 µM (inactive)	12.2 µM	8.43 µM (inactive)
COc1cc2ccc3c4ccccc4cnc3c2cc1OC	> 100 µM (inactive)	> 100 µM (inactive)	> 100 µM (inactive)	> 100 µM (inactive)	> 100 µM (inactive)	> 100 µM (inactive)	> 100 µM (inactive)	> 100 µM (inactive)	> 100 µM (inactive)	> 100 µM (inactive)	> 100 µM (inactive)	> 100 µM (inactive)		> 100 µM (inactive)	> 100 µM (inactive)	> 100 µM (inactive)	> 100 µM (inactive)	> 100 µM (inactive)	> 100 µM	> 100 µM (inactive)
CCOP(=O)(OCC)OC(C#N)c1ccc(-c2ccccc2)cc1 (stereo not given)	27 µM (inactive)	19.5 µM (inactive)	33 µM (inactive)	73.1 µM (inactive)	16.9 µM (inactive)	36.3 µM (inactive)	49 µM (inactive)	20.7 µM (inactive)	16 µM (inactive)	13.7 µM (inactive)	15.2 µM (inactive)	15.2 µM (inactive)		18.2 µM (inactive)	30.5 µM (inactive)	28.4 µM (inactive)	31.4 µM (inactive)	20.8 µM (inactive)	18 µM	30 µM (inactive)
COc1cccc2[s+]snc12	57.7 µM (inactive)	26.9 µM (inactive)	47.8 µM (inactive)	50.6 µM (inactive)	33.6 µM (inactive)	27.2 µM (inactive)	> 100 µM (inactive)		24.3 µM (inactive)	33.6 µM (inactive)	> 10 µM (inactive)	45.4 µM (inactive)		59.6 µM (inactive)	> 100 µM (inactive)	> 100 µM (inactive)	> 100 µM (inactive)	35.8 µM (inactive)	42.4 µM	22.2 µM (inactive)
CC1(C)COC(c2cccnc2/C=N/O)=N1	> 100 µM (inactive)	> 100 µM (inactive)	> 100 µM (inactive)	> 100 µM (inactive)	> 100 µM (inactive)	> 100 µM (inactive)	> 100 µM (inactive)		> 100 µM (inactive)	> 100 µM (inactive)	> 100 µM (inactive)	> 100 µM (inactive)		> 100 µM (inactive)	> 100 µM (inactive)	> 100 µM (inactive)	> 100 µM (inactive)	> 100 µM (inactive)	> 100 µM	> 100 µM (inactive)
c1ccc(SC2(Sc3ccccc3)CCCC2)cc1	> 100 µM (inactive)	> 100 µM (inactive)	> 100 µM (inactive)	> 100 µM (inactive)	> 100 µM (inactive)	> 100 µM (inactive)	> 100 µM (inactive)	> 100 µM (inactive)	> 100 µM (inactive)	> 100 µM (inactive)	> 100 µM (inactive)	> 100 µM (inactive)		> 100 µM (inactive)	> 100 µM (inactive)	> 100 µM (inactive)	> 100 µM (inactive)	> 100 µM (inactive)	> 100 µM	> 100 µM (inactive)
O=[N+]([O-])c1cccc([N+](=O)[O-])c1Cl	16.6 µM (inactive)	16.4 µM (inactive)	14.7 µM (inactive)	13.1 µM (inactive)	26.4 µM (inactive)	21.8 µM (inactive)	20.3 µM (inactive)	1.15 µM (inactive)	16.4 µM (inactive)	1.35 µM (inactive)	11 µM (inactive)	40.6 µM (inactive)		11.1 µM (inactive)	21.9 µM (inactive)		21.1 µM (inactive)	17.9 µM (inactive)	12.1 µM	3.93 µM (inactive)
NN1C(=O)C(CCO)S/C1=N/N=C1/SC(CCO)C(=O)N1N (stereo not given)	> 100 µM (inactive)	> 100 µM (inactive)	> 100 µM (inactive)	> 100 µM (inactive)	> 100 µM (inactive)	> 100 µM (inactive)	> 100 µM (inactive)	> 100 µM (inactive)	> 100 µM (inactive)	> 100 µM (inactive)	> 100 µM (inactive)	> 100 µM (inactive)		> 100 µM (inactive)		> 100 µM (inactive)	> 100 µM (inactive)	> 100 µM (inactive)	> 100 µM	> 100 µM (inactive)
